These are literature values, as cited in patent publication US12090140B2, “Non-sedating dexmedetomidine treatment regimens” (priority 2023, dated 2024).

Series [1] deals with adult patients and healthy adult subjects. Conditions: cited from earlier work.
For series [2] the following is noted: cited from earlier work; for Mean clearance relative to subjects with normal hepatic function: IV infusion of 0.6 meg/kg over 10 minutes.

Like-named read-outs stand apart in the source and are kept apart here. Some results are limits rather than exact numbers.

With `Cc1cccc([C@H](C)c2c[nH]cn2)c1C` [intravenous dexmedetomidine], the Effects of overdose entry in series [1] (IV 2 mcg/kg loading dose over 10 minutes, two patients) is listed as “bradycardia and/or hypotension”. Besides, the “Maximum blood concentration in tolerability study” value in series [1] (IV doses at and above 0.2 to 0.7 mcg/kg/hour, healthy adult subjects) is “approximately 13 times the upper boundary of the therapeutic range”. Moreover, the “Most notable effects at the highest doses” value in series [1] (IV tolerability study, two subjects) is “first degree atrioventricular block and second-degree heart block”. In addition, the “Adult patients with at least 1 event related to withdrawal, n (%)” value is listed as 12 (5%) in series [1] (IV up to 7 days, within the first 24 hours after discontinuing) and 7 (3%) in series [1] (IV, 24 to 48 hours after discontinuing). The “Frequency of tachycardia and hypertension requiring intervention” value in series [1] (IV, 48 hours following discontinuation) is recorded as less than 5%. Further, in series [2] (intravenous), the “Effect of sex on pharmacokinetics” value is recorded as “no observed difference”. The results for the “Mean clearance relative to subjects with normal hepatic function” value in series [2] (mild hepatic impairment), in series [2] (moderate hepatic impairment) and in series [2] (severe hepatic impairment) were 74%, 64% and 53%, respectively. For the same compound, the “Mean clearance for free drug relative to subjects with normal hepatic function” value in series [2] (mild hepatic impairment) is 59%; in series [2] (moderate hepatic impairment), 51%; in series [2] (severe hepatic impairment), 32%.
